Source: US8569524B2, “Bis(tetrahydrofuran) compound, method for production of the compund, and use of the compound” (Glytech Inc., priority 2007, dated 2013)

System: Pheochromocytoma (PC12) cells
Assay: Neurite outgrowth activity test in PC12 cells in the presence of NGF
Format: cell-based
Conditions: in the presence of DMSO and NGF (20 ng/ml), compared with the sample without compound, micrographs
Protocol: When the solvent was ethanol, the concentrations were targeted at 1 mM, 0.1 mM, and […]. A sample at 1 mM concentration was prepared first. When the amount of sample was 1 mg, the sample was dissolved in 100% ethanol (1/molecular weight×1,000)/2 ml, and an equal amount of Milli-Q (1/molecular weight×1,000)/2 ml was added thereto, after which the sample was filtered through a […] into a sample tube.
A sample at 0.1 mM concentration was prepared by diluting 1 mM solution 10-fold with 50% ethanol. Likewise, a sample at […] concentration was prepared from 0.1 mM solution.
When the solvent was DMSO, the concentrations were targeted at 10 mM, 1 mM, and 0.1 mM.
When the sample is prepared in ethanol, the sample is diluted 100-fold with the medium; and when the sample is prepared in DMSO, the sample is diluted 1,000-fold in the medium. The actual concentrations of the sample were thus […] both when the sample was prepared in ethanol and when the sample was prepared in DMSO.
Measurement was carried out using the following equipment and software.
Statistical processing of obtained data was carried out using “Origin ver. 7.0” (OriginLab, USA) and Mac Statistical Analysis. The significant difference was determined using Student's T-test and Dunnett's T-test.
Pheochromocytoma (PC12) cells were purchased from the Health Science Research Resources Bank of the Japan Health Sciences Foundation. Cell number: JCRB0733, product name: PC-12.
PC12 cells were cultivated in a medium having a composition including DMEM/10% HS, 5% FBS, 50 IU/ml penicillin, and […], in a culture flask coated with rat tail-derived collagen, in an incubator (95% humidity, 5% carbon dioxide). When the cell density becomes obviously too low, or when the cells overproliferate, the cells would be under load, requiring a longer time for proliferation and/or causing the cells to dye out. Thus, the cells were subcultured such that the cells would be present at a density of about 80% in the flask. When cells were subcultured or when activity evaluation tests were carried out, the cells were treated with trypsin (0.25%, 5 min.) to obtain a cell suspension, which was then seeded into a collagen-coated culture flask or plate.
The condition of the PC12 cells was observed; it was confirmed that at least 50% of the PC12 cells were fused. The plate was coated with rat tail-derived collagen; on the following day, the plate was washed twice with Milli-Q water. Then, a medium having a composition including DMEM/10% HS, 5% FBS, 50 IU/ml penicillin, and […] was prepared.
The medium in the culture flask was removed by suction. The PC12 cells were washed twice with PBS (5 mL), and trypsin (3 mL) was added thereto, which was then left to stand for about 5 minutes. A cell suspension was obtained by pipetting. In order to inhibit the activity of the trypsin, the cell suspension was transferred to a 50 mL centrifuge tube containing a serum-containing medium (2 mL). The total amount was adjusted to 10 mL with PBS, and the cell suspension was centrifuged (1,000 rpm×5 min). After centrifuging, the supernatant liquid was removed by suction using a pump, PBS (10 mL) was added thereto, and pipetting was carried out several times using a bent-tip Komagome pipette. After pipetting, the cell suspension was centrifuged again, and a similar operation was repeated twice. […]

SMILES: CO[C@]1(C)C[C@@H]2OCC3=CCCCC32O1 (some centres unmarked) [Compound 1D-2-1]
- neurite outgrowth activity (1 μM compound): further enhanced neurite outgrowth activity
- neurite outgrowth activity (10 μM compound): further enhanced neurite outgrowth activity

SMILES: CO[C@@]1(C)C[C@@H]2OCC3=CCCCC32O1 (some centres unmarked) [Compound 1C-2-1]
- neurite outgrowth activity (1 μM compound): further enhanced neurite outgrowth activity
- neurite outgrowth activity (10 μM compound): further enhanced neurite outgrowth activity

SMILES: CCO[C@]1(C)C[C@@H]2OCC3=CCCC[C@]32O1 [Compound 1D-2-3]
- neurite outgrowth activity (10 μM compound): further enhanced neurite outgrowth activity
